Experiments:
[1] = target: Tyrosine-protein kinase Yes (Homo sapiens) (UniProt P07947); experiment: Inhibition of YES (unknown origin) assessed as residual activity at 1000 nM by KINOMEscan analysis relative to control
[2] = target: T1, Discoidin domain-containing receptor 2 (Homo sapiens) (UniProt Q16832); experiment: Inhibition of DDR2 (unknown origin) assessed as residual activity at 1000 nM by KINOMEscan analysis relative to control
T1 sequence (whole entry): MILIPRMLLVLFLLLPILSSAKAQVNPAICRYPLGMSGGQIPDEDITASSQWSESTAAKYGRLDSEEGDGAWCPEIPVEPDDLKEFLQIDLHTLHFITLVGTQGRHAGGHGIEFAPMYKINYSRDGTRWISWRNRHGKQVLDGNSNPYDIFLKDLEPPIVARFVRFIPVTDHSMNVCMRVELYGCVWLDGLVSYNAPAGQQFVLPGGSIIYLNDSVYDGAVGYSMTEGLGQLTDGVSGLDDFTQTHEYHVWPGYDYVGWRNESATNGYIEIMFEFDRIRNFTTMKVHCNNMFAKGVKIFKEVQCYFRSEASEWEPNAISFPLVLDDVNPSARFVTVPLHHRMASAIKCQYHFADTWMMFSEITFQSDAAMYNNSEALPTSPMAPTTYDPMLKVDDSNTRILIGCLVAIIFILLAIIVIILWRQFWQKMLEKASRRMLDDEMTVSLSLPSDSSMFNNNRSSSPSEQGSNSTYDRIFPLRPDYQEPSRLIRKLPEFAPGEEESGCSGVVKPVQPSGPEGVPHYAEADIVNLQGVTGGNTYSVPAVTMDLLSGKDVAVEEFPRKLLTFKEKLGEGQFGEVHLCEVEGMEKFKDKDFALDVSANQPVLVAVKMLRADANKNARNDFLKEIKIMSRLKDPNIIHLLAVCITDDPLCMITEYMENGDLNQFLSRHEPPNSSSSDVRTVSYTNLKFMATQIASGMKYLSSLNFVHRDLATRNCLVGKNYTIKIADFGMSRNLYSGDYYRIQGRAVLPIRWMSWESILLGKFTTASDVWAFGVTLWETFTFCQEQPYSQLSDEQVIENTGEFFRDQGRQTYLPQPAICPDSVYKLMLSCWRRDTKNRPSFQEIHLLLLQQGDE

[3] = target: Tyrosine-protein kinase receptor UFO (Homo sapiens) (UniProt P30530); experiment: Inhibition of AXL (unknown origin) assessed as residual activity at 1000 nM by KINOMEscan analysis relative to control
[4] = target: T2, Ephrin type-B receptor 3 (Homo sapiens) (UniProt P54753); experiment: Inhibition of EPHB3 (unknown origin) assessed as residual activity at 1000 nM by KINOMEscan analysis relative to control
T2 sequence (whole entry): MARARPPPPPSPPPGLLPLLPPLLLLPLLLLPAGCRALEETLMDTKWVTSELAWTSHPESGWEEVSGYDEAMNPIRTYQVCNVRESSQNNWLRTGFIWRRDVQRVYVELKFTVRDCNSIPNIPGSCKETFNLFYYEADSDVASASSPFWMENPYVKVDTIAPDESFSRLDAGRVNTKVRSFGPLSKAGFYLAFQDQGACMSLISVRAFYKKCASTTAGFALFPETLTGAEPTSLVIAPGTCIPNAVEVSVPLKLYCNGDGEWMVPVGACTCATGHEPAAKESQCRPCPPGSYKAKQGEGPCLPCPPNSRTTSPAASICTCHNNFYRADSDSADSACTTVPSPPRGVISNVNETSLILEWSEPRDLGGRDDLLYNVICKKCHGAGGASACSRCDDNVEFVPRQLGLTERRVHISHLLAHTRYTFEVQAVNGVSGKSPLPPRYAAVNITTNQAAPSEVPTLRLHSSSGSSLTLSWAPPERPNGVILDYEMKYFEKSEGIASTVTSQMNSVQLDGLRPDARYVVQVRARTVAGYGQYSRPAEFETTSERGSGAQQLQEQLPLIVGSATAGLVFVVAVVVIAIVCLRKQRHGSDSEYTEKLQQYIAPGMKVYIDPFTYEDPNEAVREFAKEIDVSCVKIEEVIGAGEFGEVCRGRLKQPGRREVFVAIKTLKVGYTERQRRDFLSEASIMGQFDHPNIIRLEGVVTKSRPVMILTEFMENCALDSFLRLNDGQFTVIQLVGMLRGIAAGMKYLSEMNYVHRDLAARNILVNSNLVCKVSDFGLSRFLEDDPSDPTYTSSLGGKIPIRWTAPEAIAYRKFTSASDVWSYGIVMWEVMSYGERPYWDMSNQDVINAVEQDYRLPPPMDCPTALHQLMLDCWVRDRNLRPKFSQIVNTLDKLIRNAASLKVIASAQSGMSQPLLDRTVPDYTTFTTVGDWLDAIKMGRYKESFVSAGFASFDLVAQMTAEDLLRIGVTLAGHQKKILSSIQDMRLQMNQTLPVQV

[5] = target: Casein kinase I isoform gamma-3 (Homo sapiens) (UniProt Q9Y6M4); experiment: Inhibition of CSNK1G3 (unknown origin) assessed as residual activity at 1000 nM by KINOMEscan analysis relative to control
[6] = test system: Tyrosine-protein kinase ABL1 (Homo sapiens), P00519 [F317L]; experiment: Inhibition of phosphorylated ABL1 F317L mutant (unknown origin) assessed as residual activity at 1000 nM by KINOMEscan analysis relative to control
[7] = target: Serine/threonine-protein kinase MRCK gamma (Homo sapiens) (UniProt Q6DT37); experiment: Inhibition of DMPK2 (unknown origin) assessed as residual activity at 1000 nM by KINOMEscan analysis relative to control
[8] = target: Death-associated protein kinase 1 (Homo sapiens) (UniProt P53355); experiment: Inhibition of DAPK1 (unknown origin) assessed as residual activity at 1000 nM by KINOMEscan analysis relative to control
[9] = target: Protein-tyrosine kinase 2-beta (Homo sapiens) (UniProt Q14289); experiment: Inhibition of PYK2 (unknown origin) assessed as residual activity at 1000 nM by KINOMEscan analysis relative to control
[10] = target: Macrophage colony-stimulating factor 1 receptor (Homo sapiens) (UniProt P07333); experiment: Inhibition of CSF1R (unknown origin) assessed as residual activity at 1000 nM by KINOMEscan analysis relative to control
Macrophage colony-stimulating factor 1 receptor (Homo sapiens), sequence (P07333 whole entry): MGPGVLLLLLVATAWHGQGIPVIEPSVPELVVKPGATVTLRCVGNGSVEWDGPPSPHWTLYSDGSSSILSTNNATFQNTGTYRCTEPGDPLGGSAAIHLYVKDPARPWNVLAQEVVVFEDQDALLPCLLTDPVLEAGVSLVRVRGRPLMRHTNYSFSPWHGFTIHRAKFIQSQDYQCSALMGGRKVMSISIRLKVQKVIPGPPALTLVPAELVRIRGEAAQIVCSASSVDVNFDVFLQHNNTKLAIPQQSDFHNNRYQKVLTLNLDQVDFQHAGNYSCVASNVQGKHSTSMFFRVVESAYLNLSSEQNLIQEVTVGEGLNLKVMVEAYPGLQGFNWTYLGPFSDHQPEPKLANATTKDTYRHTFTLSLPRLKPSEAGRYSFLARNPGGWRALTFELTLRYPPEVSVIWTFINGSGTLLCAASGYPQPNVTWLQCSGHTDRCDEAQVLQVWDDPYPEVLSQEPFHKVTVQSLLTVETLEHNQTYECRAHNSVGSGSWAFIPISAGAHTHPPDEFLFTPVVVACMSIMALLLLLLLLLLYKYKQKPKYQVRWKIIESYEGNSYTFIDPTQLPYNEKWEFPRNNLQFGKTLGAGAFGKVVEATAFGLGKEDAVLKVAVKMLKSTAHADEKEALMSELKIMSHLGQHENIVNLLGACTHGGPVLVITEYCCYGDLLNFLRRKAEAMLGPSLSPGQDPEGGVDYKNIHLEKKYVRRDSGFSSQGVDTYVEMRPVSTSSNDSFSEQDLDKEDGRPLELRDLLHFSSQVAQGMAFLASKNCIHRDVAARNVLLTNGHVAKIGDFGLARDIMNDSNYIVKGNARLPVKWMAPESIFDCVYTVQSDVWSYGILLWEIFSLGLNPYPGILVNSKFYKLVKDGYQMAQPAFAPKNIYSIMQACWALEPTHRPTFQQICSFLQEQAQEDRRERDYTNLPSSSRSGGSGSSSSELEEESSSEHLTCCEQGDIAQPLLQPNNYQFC

Serine/threonine-protein kinase MRCK gamma (Homo sapiens), sequence (Q6DT37 whole entry): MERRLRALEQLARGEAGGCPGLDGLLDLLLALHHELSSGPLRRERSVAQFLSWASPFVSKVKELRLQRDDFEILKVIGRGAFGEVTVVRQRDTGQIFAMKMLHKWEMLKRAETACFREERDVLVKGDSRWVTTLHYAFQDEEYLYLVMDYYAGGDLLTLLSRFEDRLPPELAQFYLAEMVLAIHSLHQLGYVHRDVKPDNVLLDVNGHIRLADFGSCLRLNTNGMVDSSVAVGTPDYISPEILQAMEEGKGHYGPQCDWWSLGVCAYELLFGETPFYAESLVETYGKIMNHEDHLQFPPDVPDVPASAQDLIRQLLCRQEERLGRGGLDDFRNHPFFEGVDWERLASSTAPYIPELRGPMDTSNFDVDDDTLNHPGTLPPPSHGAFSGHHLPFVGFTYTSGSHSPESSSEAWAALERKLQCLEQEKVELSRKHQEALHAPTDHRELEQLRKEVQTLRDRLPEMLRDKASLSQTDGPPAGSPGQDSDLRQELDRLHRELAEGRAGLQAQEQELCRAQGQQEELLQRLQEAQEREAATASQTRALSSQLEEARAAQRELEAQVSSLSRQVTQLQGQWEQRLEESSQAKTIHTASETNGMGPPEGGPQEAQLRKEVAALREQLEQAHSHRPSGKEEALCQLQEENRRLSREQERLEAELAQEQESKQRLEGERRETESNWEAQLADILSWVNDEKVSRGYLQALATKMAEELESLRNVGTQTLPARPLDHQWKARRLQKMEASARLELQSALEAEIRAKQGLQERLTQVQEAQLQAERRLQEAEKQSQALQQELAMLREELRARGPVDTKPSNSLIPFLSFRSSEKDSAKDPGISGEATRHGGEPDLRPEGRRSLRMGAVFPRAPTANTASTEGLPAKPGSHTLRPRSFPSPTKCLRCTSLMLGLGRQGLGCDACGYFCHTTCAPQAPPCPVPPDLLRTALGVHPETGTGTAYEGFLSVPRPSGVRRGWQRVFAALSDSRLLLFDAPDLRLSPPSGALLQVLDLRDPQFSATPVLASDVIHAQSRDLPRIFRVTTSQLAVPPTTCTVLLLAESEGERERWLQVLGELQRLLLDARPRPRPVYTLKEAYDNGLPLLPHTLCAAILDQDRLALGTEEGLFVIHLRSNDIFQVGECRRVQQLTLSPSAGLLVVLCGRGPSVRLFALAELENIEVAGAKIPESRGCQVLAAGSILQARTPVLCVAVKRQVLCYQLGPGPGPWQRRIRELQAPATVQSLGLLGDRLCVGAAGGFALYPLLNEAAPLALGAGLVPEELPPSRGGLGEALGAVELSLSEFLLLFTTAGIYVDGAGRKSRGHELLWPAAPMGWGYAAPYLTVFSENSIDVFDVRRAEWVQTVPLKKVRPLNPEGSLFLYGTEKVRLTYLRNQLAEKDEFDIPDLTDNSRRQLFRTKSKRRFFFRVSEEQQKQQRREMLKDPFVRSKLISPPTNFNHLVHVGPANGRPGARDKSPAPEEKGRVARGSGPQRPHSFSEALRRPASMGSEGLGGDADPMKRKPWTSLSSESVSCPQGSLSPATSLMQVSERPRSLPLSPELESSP
Tyrosine-protein kinase Yes (Homo sapiens), sequence (P07947 2-543 limits assumed): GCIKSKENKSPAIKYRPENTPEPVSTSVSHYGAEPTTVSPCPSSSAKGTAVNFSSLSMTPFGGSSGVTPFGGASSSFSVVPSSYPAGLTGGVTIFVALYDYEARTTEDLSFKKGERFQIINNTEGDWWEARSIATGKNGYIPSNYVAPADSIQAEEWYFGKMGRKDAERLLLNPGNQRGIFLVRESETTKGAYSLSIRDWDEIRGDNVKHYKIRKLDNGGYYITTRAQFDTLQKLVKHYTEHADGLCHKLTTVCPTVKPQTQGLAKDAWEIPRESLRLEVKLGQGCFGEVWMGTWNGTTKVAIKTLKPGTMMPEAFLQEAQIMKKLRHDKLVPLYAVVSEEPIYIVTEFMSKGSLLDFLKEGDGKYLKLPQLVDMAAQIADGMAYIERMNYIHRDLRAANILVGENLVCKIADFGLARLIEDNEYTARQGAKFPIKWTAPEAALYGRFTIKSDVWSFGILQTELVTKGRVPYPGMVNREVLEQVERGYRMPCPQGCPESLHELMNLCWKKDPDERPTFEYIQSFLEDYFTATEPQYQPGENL
Tyrosine-protein kinase receptor UFO (Homo sapiens), sequence (P30530 whole entry): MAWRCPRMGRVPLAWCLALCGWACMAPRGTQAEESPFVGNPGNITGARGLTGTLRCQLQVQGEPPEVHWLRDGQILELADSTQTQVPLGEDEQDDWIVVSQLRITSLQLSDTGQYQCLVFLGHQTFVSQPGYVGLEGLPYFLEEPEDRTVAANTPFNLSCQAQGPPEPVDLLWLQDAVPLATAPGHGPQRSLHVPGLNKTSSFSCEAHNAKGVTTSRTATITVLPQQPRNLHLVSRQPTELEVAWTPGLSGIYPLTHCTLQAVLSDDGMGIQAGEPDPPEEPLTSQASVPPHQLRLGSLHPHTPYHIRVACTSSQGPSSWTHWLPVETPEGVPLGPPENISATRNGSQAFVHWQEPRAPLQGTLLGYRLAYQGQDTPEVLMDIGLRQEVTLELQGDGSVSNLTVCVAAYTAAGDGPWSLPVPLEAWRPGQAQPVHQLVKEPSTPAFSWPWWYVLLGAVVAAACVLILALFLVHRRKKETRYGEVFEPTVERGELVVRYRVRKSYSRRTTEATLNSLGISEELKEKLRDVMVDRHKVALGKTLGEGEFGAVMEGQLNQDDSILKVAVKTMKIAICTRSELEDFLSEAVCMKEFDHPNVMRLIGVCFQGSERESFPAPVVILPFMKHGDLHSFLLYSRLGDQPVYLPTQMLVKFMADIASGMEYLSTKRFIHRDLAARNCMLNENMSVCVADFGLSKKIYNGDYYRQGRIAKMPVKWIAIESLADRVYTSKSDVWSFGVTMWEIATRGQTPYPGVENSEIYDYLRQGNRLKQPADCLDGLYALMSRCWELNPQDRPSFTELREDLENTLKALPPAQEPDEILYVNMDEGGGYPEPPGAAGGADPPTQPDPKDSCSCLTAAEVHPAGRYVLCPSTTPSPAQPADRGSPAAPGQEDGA
Protein-tyrosine kinase 2-beta (Homo sapiens), sequence (Q14289 whole entry, looked up): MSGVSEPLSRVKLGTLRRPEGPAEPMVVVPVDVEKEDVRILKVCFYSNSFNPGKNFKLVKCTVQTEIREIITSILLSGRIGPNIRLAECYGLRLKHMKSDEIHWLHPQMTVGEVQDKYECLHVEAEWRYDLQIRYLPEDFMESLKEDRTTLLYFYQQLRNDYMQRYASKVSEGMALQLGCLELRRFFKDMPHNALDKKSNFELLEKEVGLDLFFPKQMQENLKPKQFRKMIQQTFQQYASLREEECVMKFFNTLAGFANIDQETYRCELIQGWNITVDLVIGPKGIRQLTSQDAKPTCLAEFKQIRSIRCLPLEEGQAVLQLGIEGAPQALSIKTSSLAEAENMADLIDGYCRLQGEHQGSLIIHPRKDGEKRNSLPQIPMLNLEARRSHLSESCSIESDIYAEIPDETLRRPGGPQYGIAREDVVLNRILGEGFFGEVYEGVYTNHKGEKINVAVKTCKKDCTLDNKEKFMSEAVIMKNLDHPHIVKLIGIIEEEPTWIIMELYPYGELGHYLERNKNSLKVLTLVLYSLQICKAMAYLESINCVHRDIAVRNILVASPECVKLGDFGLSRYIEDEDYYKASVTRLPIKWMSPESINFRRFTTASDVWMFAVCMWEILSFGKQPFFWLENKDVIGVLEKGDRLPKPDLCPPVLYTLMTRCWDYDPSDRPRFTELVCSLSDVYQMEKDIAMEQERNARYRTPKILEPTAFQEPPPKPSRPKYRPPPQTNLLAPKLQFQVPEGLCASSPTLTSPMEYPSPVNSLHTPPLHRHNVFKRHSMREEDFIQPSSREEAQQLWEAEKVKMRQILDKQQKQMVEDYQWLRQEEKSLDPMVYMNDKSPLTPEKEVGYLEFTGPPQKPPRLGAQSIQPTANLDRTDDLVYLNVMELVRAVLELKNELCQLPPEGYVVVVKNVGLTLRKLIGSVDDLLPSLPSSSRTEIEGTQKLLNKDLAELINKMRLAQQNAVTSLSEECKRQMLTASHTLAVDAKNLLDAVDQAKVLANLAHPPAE

SMILES	Activity [1] [%]	Activity [2] [%]	Activity [3] [%]	Activity [4] [%]	Activity [5] [%]	Activity [6] [%]	Activity [7] [%]	Activity [8] [%]	Activity [9] [%]	Activity [10] [%]
COc1cc2nc(C)nc(N[C@H](C)c3cccc(-c4cn[nH]c4)c3)c2cc1OC	67	97	93	100	80	92	100	82	38	94
COc1cc2ncnc(N[C@H](C)c3cccc4ccccc34)c2cc1OC	100	67	90	100	100	89	93	100	100	76
